Values after ≈ are worked out from the molar mass of the structure shown. Read-outs that look alike come from different tables or passages of the source.
Legend:
L. major amastigote = test: L. major intracellular amastigote luciferase assay in RAW 264.7 macrophages; format: cell-based, Leishmania major; conditions: intracellular amastigotes in RAW 264.7 macrophages, 96 h
Procedure: Amastigote assays were performed using pLEXSY-hyg2-luciferase L. major transfected promastigotes and the murine RAW 264.7 macrophage cell line (ATCC TIB-71, Manassas, VA). Briefly, luciferase-expressing promastigotes of each Leishmania species were generated by adding a luciferase encoding region to the pLEXSY-hyg2 vector (Jena Biosciences, Germany) as described. One μg of the linearized pLEXSY-hyg2-luciferase vector were electroporated (480 V, 13 Ω, and 500 μF) into 4×10^7 Leishmania promastigotes. Selection for stable promastigote transfectants was carried out using hygromycin B (100 μg/mL). RAW 264.7 macrophages were maintained in growth medium (Dulbecco’s Modified Eagle’s Medium supplemented with heat-inactivated 10% FBS (Life Technologies)). Cells were harvested and resuspended in growth medium at 2.0×10^5 cells/mL, and 1×10^4 cells/well were dispensed (final volume 50 μL) in each well of a 384 well tissue-culture treated white plate using a EVO Freedom liquid handling system (Tecan, Durham, NC). Plates were incubated at 37°C in 5% CO2 for 24 h after which the culture medium was removed from each well using the EVO Freedom liquid handler. Metacyclic phase pLEXSY-hyg2-luciferase-Leishmania promastigotes (MOI = 1:10 L. major) were added to each assay plate well and allowed to infect the RAW 264.7 macrophages. After an overnight incubation, the growth medium was aspirated and each well was washed three times with 40 μL of fresh growth medium to remove non-internalized promastigotes. After the third wash, 69.2 μL of growth medium was added to each well. Compound dilutions (final concentration ranges 0.5–10,000 ng/mL) were generated and dispensed using the liquid handling system. Compound treated plates were incubated at 37°C in 5% CO2 for 96 h. After incubation, 7.5 μL of a luciferin solution (Caliper Life Science, Waltham, MA) diluted to 150 μg/mL was added to each well, and the plates were incubated for 30 min at 37°C in the dark. Data were captured using an Infinite M200 plate reader (Tecan). EC50s were generated for each concentration response test using GraphPad Prism software 6.0.

[1] = test system: T. b. brucei (strain 427); test: T. b. brucei proliferation assay (PrestoBlue, 48 h); format: cell-based, Trypanosoma brucei brucei
Procedure: The assay was performed following a previously reported procedure. Briefly, in a 96-well plate, compounds were added in triplicates at 50 μM and in serial dilutions 1:2 in HMI-9 medium. To each well, 100 μL of 2.5×10^3 T. b. brucei (strain 427, received as a gift from Dr. C. C. Wang at UCSF) in HMI-9 medium was were added and incubated at 37°C, 5% CO2 for 48 h. Following incubation, 20 μL of PrestoBlue were added to each well and incubated for additional 4 h. Fluorescence was read at 530 nm excitation and 590 nm emission.

[2] = test system: T. cruzi amastigote (Tulahuen strain expressing β-galactosidase); test: Intracellular T. cruzi assay in 3T3 cells (beta-galactosidase, 96 h); format: cell-based, Trypanosoma cruzi; conditions: read-out: T. cruzi amastigote EC50
Procedure: In a 96-well plate, 5×10^4 3T3 cells in DMEM without phenol red supplemented with 2% FBS were added to each well. Cells were incubated for 2 h to allow for attachment. Compounds were added in triplicates at 50 μM and in serial dilutions 1:2. To each well, 5×10^4 T. cruzi trypomastigotes (Tulahuen strain expressing β-galactosidase) were added and incubated at 37°C, 5% CO2 for 96 h. Following incubation, 50 μL of 500 μM chlorophenol Red-β-D-galactopyranoside (CPRG) in phosphate-buffered saline with 0.5% NP40 was added to each well and incubated at 37°C, 5% CO2 for 4 h. Absorbance was read at 590–595 nm.

HepG2 cells = test: Drug toxicity to HepG2 cells (MTT, 48 h); format: cell-based, human; conditions: tested concentration ranges based on compound solubility
Procedure: HepG2 cells were cultured in complete Minimal Essential Medium prepared by supplementing MEM with 0.19% sodium bicarbonate, 10% heat inactivated FBS, 2 mM L-glutamine, 0.1 mM MEM non-essential amino, 0.009 mg/mL insulin, 1.76 mg/mL bovine serum albumin, 20 units/mL penicillin–streptomycin, and 0.05 mg/mL gentamycin. HepG2 cells cultured in complete MEM were first washed with 1× Hank’s Balanced Salt Solution (Invitrogen #14175095), trypsinized using a 0.25% trypsin/EDTA solution, assessed for viability using trypan blue, and resuspended at 250,000 cells/mL. Using a Tecan EVO Freedom robot, 38.3 μL of cell suspension were added to each well of clear, cell culture-treated 384-well microtiter plates for a final concentration of 9570 liver cells per well, and plated cells were incubated overnight in 5% CO2 at 37°C. Drug plates were prepared with the Tecan EVO Freedom using sterile 96 well plates containing twelve duplicate 1.6-fold serial dilutions of each test compound suspended in DMSO. 4.25 μL of diluted test compound was then added to the 38.3 μL of media in each well providing a […] final dilution of compound. Compounds were tested from a range of 57 ng/mL to 10,000 ng/mL for all assays. Mefloquine was used as a plate control for all assays with a concentration ranging from 113 ng/mL to 20,000 ng/mL. After a 48 h incubation period, 8 μL of a 1.5 mg/mL solution of MTT diluted in complete MEM media was added to each well. All plates were subsequently incubated in the dark for 1 h at room temperature. After incubation, the media and drugs in each well was removed by shaking the plate over sink, and the plates were left to dry in a fume hood for 15 mins. Next, 30 μL of isopropanol acidified by addition of HCl at a final concentration of 0.36% was added to dissolve the formazan dye crystals created by reduction of MTT. Plates are put on a 3-D rotator for 15–30 mins. Absorbance was determined in all wells using a Tecan iControl 1.6 Infinite plate reader.

Aqueous solubility = format: physicochemical
[3] = Human plasma protein binding; format: in vitro ADME; conditions: for fraction unbound: read-out: Human PPB (converted)
[4] = Human liver microsome intrinsic clearance; format: in vitro ADME; conditions: for microsomal CLint: liver microsomes
[5] = Rat hepatocyte intrinsic clearance; format: in vitro ADME; conditions: for hepatocyte CLint: hepatocytes
LogD7.4 = format: physicochemical; conditions: pH 7.4
NIH/3T3 cells = test: Drug toxicity to 3T3 cells (Alamar Blue, 96 h); format: cell-based
Procedure: In a 96-well plate, 5×10^4 NIH/3T3 (ATCC CRL-1658) cells (purchased from ATCC) in DMEM without phenol red supplemented with 2% FBS were added to each well. Cells were incubated for 2 h to allow for attachment. Compounds were added in triplicates at 200 μM and in serial dilutions 1:2 and incubated at 37°C, 5% CO2 for 96 h. […] Following incubation, 10 μL of Alamar Blue (ThermoFisher) were added to each well and cells incubated at 37°C, 5% CO2 for 4 h. Absorbance was read at 590–595 nm.

[6] = intracellular in 3T3 cells, 96 h
[7] = Trypanosoma cruzi, TULAHUEN, NIH3T3, 96 h

SMILES	EC50 (L. major amastigote) [µM]	EC50 [1] [µM]	EC50 [2, 6] [µM]	HepG2 TC50 (HepG2 cells) [µM]	solubility (Aqueous solubility) [µM]	Human PPB [3] [%]	Human Liver Microsome CLint [4] [µL/min/mg]	Rat Hepatocyte CLint [5] [μL/min/10^6 cells]	LogD7.4 (LogD7.4)	3T3 TC50 (NIH/3T3 cells) [µM]	EC50 (L. major amastigote; Leishmania major, RAW264.7) [µM]	EC50 ([1]; Trypanosoma brucei) [µM]	EC50 [2, 7] [µM]	fraction unbound [3]	microsomal CLint [4] [µL/min/mg]	hepatocyte CLint [5] [µL/min/1e6 cells]	logD (LogD7.4)
COc1ccc(Nc2ccnc3cc(-c4cn[nH]c4)ccc23)cc1Cl [NEU-2087]	29	0.91	> 50	23	2 (≈ 0.702 µg/mL)	97	8	5	3.5								
Cc1cc(Nc2ccc3c(Nc4cnccn4)ccnc3c2)on1 [NEU-2150]	31	29	21	48						> 100							
CN1CCN(S(=O)(=O)c2ccc(-c3ccc4c(Nc5ccc(OC(F)(F)F)cc5)ccnc4c3)cc2)CC1 [Compound 10]											0.78	0.27	1.4	< 0.01	280	79	4.5
CN1CCN(S(=O)(=O)c2ccc(-c3ccc4c(Nc5cnc(C#N)cn5)ccnc4c3)cc2)CC1 [NEU-1024]	19	3	> 50	31	< 1	97			3.7	> 100							
COc1ccc(Nc2ccnc3cc(-c4cnn(C)c4)ccc23)cc1Cl [NEU-2130]	29	2.6	1.9	44						> 100							
CN1CCN(S(=O)(=O)c2ccc(-c3ccc4c(Nc5ccnnc5)ccnc4c3)cc2)CC1 [NEU-1020]	22	> 50	> 50	36	> 1000	57			-0.5	> 100							
COc1ccc(Nc2ccnc3cc(-c4ccc(S(=O)(=O)N5CCN(C)CC5)cc4)ccc23)cc1 [Compound 9]					9 (≈ 4.4 µg/mL)						4.4	0.52	1.9		350	58	4.2
CN1CCN(S(=O)(=O)c2ccc(-c3ccc4c(Nc5ccc(C(F)(F)F)nc5)ccnc4c3)cc2)CC1 [Compound 12]											6.2	0.7	5.4	0.02	390	260	4.4
CN1CCN(S(=O)(=O)c2ccc(-c3ccc4c(Nc5cccc(Cl)c5)ccnc4c3)cc2)CC1 [Compound 7]											3.4	> 50	> 50	< 0.01	150	15	
CN1CCN(S(=O)(=O)c2cccc(-c3ccc4c(Nc5ccc(OCc6cccc(F)c6)c(Cl)c5)ccnc4c3)c2)CC1 [Compound 13]					< 1						0.2	0.48	> 50	< 0.01	110	24	4.8
Cc1ccc(Nc2ccnc3cc(-c4ccc(S(=O)(=O)N5CCN(C)CC5)cc4)ccc23)cn1 [Compound 11]											3.9	0.69	9.9	0.08	400	49	3.7
c1cnc(Nc2ccnc3cc(-c4cn[nH]c4)ccc23)cn1 [NEU-2088]	3	0.29	> 50	4.5	1 (≈ 0.288 µg/mL)		130	5	2.6								
Cc1nnc(Nc2ccc3c(Nc4cnccn4)ccnc3c2)nc1C [NEU-2151]	26	2.3	> 50	22						> 100							
COc1ccc(Nc2ccnc3cc(Nc4nccc(N5CCN(C)CC5)n4)ccc23)cc1Cl [NEU-2090]	2.3	0.35	> 20	7.6	570 (≈ 271 µg/mL)	99		7.2	3.3								
